Assays:
[1] = tested on: MCL-1 mRNA; test: MCL-1 mRNA expression in D556 medulloblastoma cells (Affymetrix U133+2.0 gene chip); format: cell-based; conditions: 19 hours
Procedure: (§1) FIG. 3 illustrates Mcl-1 mRNA expression levels in medulloblastoma cells treated with CX-3543. The cells were treated at 0.1 and 1 μM CX-3543 for 19 hours, as measured by Affymetrix U133+2.0 47,000 gene chip.
(§2) D556 medulloblastoma cells were exposed to 1 uM Compound A-1 for 19 hours. […] The level of apoptosis induced in D556 as measured by Annexin V staining was about 5.5-fold higher than in DMSO-treated cells, as compared to about 1.9-fold in DAOY cells. The relative amount of down-regulation of MCL-1 (approximately 14-fold compared to about 3.2-fold) correlates with the relative level of apoptosis induction (about 5.5-fold as compared to about 1.9-fold).

[2] = tested on: MCL-1 mRNA; test: MCL-1 mRNA expression in DAOY medulloblastoma cells; format: cell-based; conditions: 1 uM, 19 hours
Procedure: as §1, §2

[3] = tested on: MCL-1 wildtype quadruplex sequence (MCL-wt); test: Competition assay (Taq polymerase stop reaction as reporter), competitor MCL-1 wildtype quadruplex; format: binding; conditions: test compound at its IC50 concentration
Text: (§3) An example of an affinity competition assay, described hereafter, is useful for determining the relative binding affinities of a test molecule between different types of nucleic acid structures, using the ability of the test molecule to bind and stabilize a specific G-quadruplex structure in a Taq polymerase stop reaction utilized as a reporter system.
(§4) The assay first involves establishing the IC50 of a test molecule in the polymerase arrest assay described above using the fluorescent-labeled oligonucleotide primer. The IC50 concentration is defined as the concentration of test molecule required that yields a 1:1 ratio of quadruplex arrest to full-length product.
(§5) A competitor nucleic acid sequence is titrated into the reaction such that each individual reaction contains the test compound at it's IC50 concentration and an increasing concentration of competitor nucleic acid (increasing from zero). The competitor nucleic acid, may be a short duplex or single strand oligonucleotide, a plasmid DNA sequence, an RNA sequence, or a nucleic acid sequence capable of forming a secondary structure, such as a G-quadruplex. […] The decrease in quadruplex arrest product, relative to the full-length product is measured as a function of concentration of added competitor nucleic acid. Thus the relative binding affinities to different competitor nucleic acid structures can be determined graphically. […]

[4] = tested on: extended MCL-1 sequence (insert 58); test: Competition assay (Taq polymerase stop reaction as reporter), competitor extended MCL-1 sequence insert 58; format: binding; conditions: FIG. 2
Text: as §3, §4, §5

[5] = tested on: DAOY medulloblastoma cells; test: Apoptosis induction by Annexin V staining in DAOY cells; format: cell-based
Procedure: (§6) FIG. 4 depicts the induction of apoptosis following treatment with CX-3543.
as §2

[6] = tested on: MCL-1 protein; test: MCL-1 protein levels in cells contacted with compound; format: cell-based; conditions: expected from the mRNA and apoptosis results
Procedure: as §2

[7] = tested on: D556 medulloblastoma cells; test: Apoptosis induction by Annexin V staining in D556 cells; format: cell-based
Procedure: as §6, §2

[8] = tested on: extended MCL-1 sequence (insert 46); test: Competition assay (Taq polymerase stop reaction as reporter), competitor extended MCL-1 sequence insert 46; format: binding; conditions: FIG. 2
Text: as §3, §4, §5

binding to the MCL-1 sequence shown in FIG. 2 [3]: binds
binding to extended MCL-1 sequence insert 58 compared to the wildtype sequence [4]: comparably higher
binding to extended MCL-1 sequence insert 46 compared to the wildtype sequence [8]: comparably higher
SMILES: CN1CCC[C@H]1CCNC(=O)c1cn2c3c(c(N4CCC(c5cnccn5)C4)c(F)cc3c1=O)Oc1cc3ccccc3cc1-2 (stereo partly shown) [Compound A-1]
rank of Mcl-1 among genes with statistically significant change relative to DMSO control ([1]; D556 cells, 1 μM, out of more than 500 genes): eighth most highly down-regulated gene
MCL-1 mRNA down-regulation ([1]; D556 medulloblastoma cells, 1 uM): approximately 14 fold
MCL-1 mRNA down-regulation [2]: approximately 3.2 fold
level of apoptosis induced, relative to DMSO-treated cells [5]: about 1.9 fold
MCL-1 protein levels [6]: decreased
level of apoptosis induced, relative to DMSO-treated cells ([7]; D556 cells): about 5.5 fold
apoptosis induction, D556 compared with DAOY ([7]; FIG. 4): greater effect of CX-3543 on D556 than on DAOY

Source: patent US20060286575A1, “MCL-1 quadruplex nucleic acids and uses thereof” (Cylene Pharmaceuticals, Inc., priority 2005, published 2006)
